Values quoted from earlier work in patent publication US5198423A, “Functional polypeptide containing a cell binding domain and a heparin binding domain of fibronectin” (Takara Shuzo Co., Ltd., priority 1989, dated 1993).

Test system: angiogenesis
Conditions: chick embryo chorions, rabbit corneas, and hamster cheek pouches

Row | Structure (SMILES) | inhibition of angiogenesis, in words
1 | C[C@@H]1C[C@H]2[C@@H]3CCC4=CC(=O)C=C[C@]4(C)[C@@]3(F)[C@@H](O)C[C@]2(C)[C@@]1(O)C(=O)CO [dexamethasone] | found to inhibit angiogenesis
2 | C[C@H]1C[C@@H]2[C@H]([C@@H](O)C[C@@]3(C)[C@H]2CC[C@]3(O)C(=O)CO)[C@@]2(C)C=CC(=O)C=C12 [6α-methylprednisolone] | found to inhibit angiogenesis
3 | C[C@]12C=CC(=O)C=C1CC[C@@H]1[C@@H]2[C@@H](O)C[C@@]2(C)[C@H]1CC[C@]2(O)C(=O)CO [prednisolone] | found to inhibit angiogenesis
